Experimental findings from patent US20230219957A1, “SMALL MOLECULE CB002-ANALOGES RESTORE THE P53 PATHWAY AND TARGET S-PHASE CHECKPOINT” (Brown University, priority 2020, published 2023) are described below.

The subject of one data set is SW480 shNoxa cells. Briefly: Tumor xenograft efficacy in NSG mice, Noxa knockdown. In kind it is in vivo. The note with it: compared to vehicle control. As to the method: Knockdown expression of NOXA by lentivirus infection. A NOXA shRNA plasmid construct was amplified according to the manufacturers recommendation (TRC Lentiviral Human PMAIP1 shRNA, Dharmacon). Plasmid DNA was isolated using the PureLink® HiPure Plasmid Filter Maxiprep Kit (Invitrogen) according to the manufacturers instructions. Lentivirus production was performed by transfecting HEK293T cells at a density of 8×10^6 cells per 10-cm dish with 1.6 μg pMD2.G envelope plasmid, 3.2 μg psPAX2 packaging vector, 3.2 μg plasmid DNA, and 24 μL of Lipofectamine® Transfection reagent 2000 (Life Technologies) in a total volume of the reaction of 1 mL of antibiotic-free DMEM media for 6-10 hours. The media was then replaced with antibiotic-free DMEM. Lentiviral particles were collected between forty-eight to seventy-two hours. SW480 cells ([…] cells per well in a 12-well plate) were infected 1:1 (virus-containing media: antibiotic-free DMEM media, total volume 1 mL) for twenty-four hours. Then, the media was replaced with DMEM complete media for an additional twenty-four hours. […]
Drug efficacy using in vivo tumor xenografts. […] Mouse weight and tumor measurements were recorded one-two times per week. Tumor volume was calculated as V=0.5*L*W^2, where L is length and W is the width of the tumor. […]

In data set [1] the test system is human SW480 colorectal cancer cells. Briefly: Tumor xenograft efficacy in NSG mice. Format: in vivo. The conditions noted are these: 50 mg/kg oral gavage three times per week, 5-weeks of treatment. As to the method: (§1) Drug efficacy using in vivo tumor xenografts. In vivo drug efficacy studies were performed on ten NSG female randomized mice per cohort. The mice had tested negative for any pathogen. Tumor inoculation was induced by subcutaneous injection in the left and right dorsal flank, each with a 150 μL suspension of 1-5×10^6 human colon cancer cells in phosphate-buffered saline with Matrigel (1:1). After tumor size reached 100 mm^3, mice were treated 3×/week with dimethyl sulfoxide vehicle or CB002-analog #4 via oral gavage (22-gauge needle) in a solution of 10% dimethyl sulfoxide, 20% Kolliphor® EL (Sigma cat. no. C5135), and 70% phosphate-buffered saline. Mouse weight and tumor measurements were recorded one-two times per week. Tumor volume was calculated as V=0.5*L*W^2, where L is length and W is the width of the tumor. At the end of the assay, mice were euthanized by CO2. All in vivo procedures were performed according to an approved Institutional Animal Care and Use Committee (IACUC) protocol.

Data set [2] deals with SW480 cells. Briefly: Propidium iodide Sub-G1 apoptosis analysis. The note with it: compared to vehicle control, forty-eight hours. In kind it is cell-based, human. As to the method: Apoptosis assay. Apoptotic cells were quantified by sub-G1 analysis. Cells were seeded at a density of 2.5×10^5to 5×10^5in a 6-well plate and treated forty-eight to seventy-two hours. After treatment, adherent cells were trypsinized and collected along with floating cells, washed with phosphate-buffered saline, and fixed in 70% ethanol. Cells were then incubated in a phosphate-citric acid buffer (0.2M Na2HPO4+0.1M citric acid, pH 7.8) at room temperature for five minutes, spun down, and resuspended for staining with 50 μg/mL propidium iodide (PI) in the presence of 250 μg/mL pancreatic ribonuclease (RNase A). Sub-G1 analyses were performed using an Epics Elite Epics flow cytometer (Coulter-Beckman).
Propidium iodide and BrdU flow cytometry assay. Cells were seeded at a density of 5×10^5 in a 6-well plate and treated for forty-eight to seventy-two hours. After treatment, floating cells were collected, and adherent cells were trypsinized, pelleted, washed with phosphate-buffered saline, and fixed in 70% ethanol overnight. For propidium iodide (PI) based Sub-G1 apoptosis analysis, cells were spun down after fixation and resuspended in phosphate-citric acid buffer (0.2M Na2HPO4+0.1M Citric Acid, pH 7.8) at room temperature for five minutes. […] Samples were analyzed on an Epics Elite Epics flow cytometer (Coulter-Beckman).

On the set-up of data set [3]: species or system mice. The conditions noted are these: in vivo, po, 50 mg/kg. As to the method: as §1
The subject of data set [4] is isogenic HCT116 cell line panel. Briefly: Cell-Titer glow cytotoxicity, potency comparison across the panel. The note with it: IC50 values, independently of HCT116 p53-status. In kind it is cell-based, human. The procedure:
CellTiter-Glo® luminescent cell viability assay. Cells were seeded in 96-well plates at a density of 5×10^3 cells per well. 20 μL of CellTiter-Glo® Reagent was added directly to the wells, following the manufacturers protocol. The bioluminescence signal was determined using an IVIS imaging system, optionally at a period of 48-72 hours after treatment.
CB002-analog #4 is a potent anti-tumor agent in vitro and in vivo. The inventors focused on lead CB002-analog #4 and investigated its therapeutic index in vitro and in vivo. The inventors treated an isogenic HCT116 cell line panel with 100 μM CB002 or 25 μM CB002-analog #4 and established IC50 values by the Cell-Titer glow cytotoxicity assay. Across this panel, CB002-analog #4 has a 20-fold to 30-fold range in IC50 values, independently of the HCT116 p53-status.

The subject of data set [5] is SW480 cells. Briefly: Microarray transcriptomic analysis with ingenuity pathway analysis. In kind it is cell-based, human. The conditions noted are these: twelve hours treatment. The procedure:
Microarray analysis. SW480 cells were seeded at a density of 1×10^6 in 10 cm dishes. After being adhered, the cells were treated with dimethyl sulfoxide vehicle control or CB002-analog #4. Floating cells were collected, and adherent cells were trypsinized at twelve hours of treatment. The cells were pelleted. According to manufacturer instructions, RNA was isolated from the cells using a Quick-RNA™ MiniPrep (#R1055, Zymo Research Irvine, Calif., USA). RNA quality was tested using an Agilent Bioanalyzer RNA kit. When the RNA quality was enough, RNA was amplified and labeled using the low RNA input linear amplification kit commercially available from Agilent Technologies, Santa Clara, Calif., USA. Labeled cDNA was hybridized onto Affymetrix Human Gene 2.0-ST array. Significant changes in gene expression were determined at 1.5-fold either up or down in dimethyl sulfoxide vehicle control versus CB002-analog #4.

As for `Cn1c(=O)c2[nH]c(Nc3cccc(C(F)(F)F)c3)nc2n(C)c1=O` [CB002-analog #4], the tumor volume entry in the data set on SW480 shNoxa cells is given as “did not differ in tumor volume”. The tumor volume entry in data set [1] is listed as “lower tumor volume than vehicle control”. In addition, in the data set with SW480 cells [2], the Sub-G1 content entry is on record as “significant increase of Sub-G1 content”. The “tolerability by mouse body weights” value in data set [3] is listed as “well-tolerated”. The “potency relative to CB002” value in data set [4] is recorded as 20-30 times. Further, in the data set with SW480 cells [5], the “p53 target genes Noxa, Puma, and DR5 expression” value is recorded as “upregulated”; the “p53 upstream regulator activation z-score (IPA)” value was found to be 3.3.
